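Where inhibition never reached the appropriate level, the endpoint shown equals the highest concentration tested. Otherwise, values were interpolated linearly from a five-concentration, 48-hour dose response in 96-well plates. Abbreviation: GI50, concentration required for 50% inhibition of growth.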 Calls of active or inactive are those of the source. No stated cut-off is given here; in the data, active = GI50 up to about 1.1 µM and inactive = higher.
Legend:
Assay in all cases: NCI tumour cell line growth inhibition, 48 h
ACHN = test system: ACHN
KM-20L2 = test system: KM-20L2
NCI-H522 = test system: NCI-H522
SNB-78 = test system: SNB-78
CAKI-1 = test system: CAKI-1
DMS-273 = test system: DMS-273
HOP-92 = test system: HOP-92
SNB-75 = test system: SNB-75
SR = test system: SR
HOP-62 = test system: HOP-62
M14 = test system: M14
DU-145 = test system: DU-145
PC-3 = test system: PC-3
MDA-MB-231 = test system: MDA-MB-231
NCI/ADR-RES = test system: NCI/ADR-RES
T47D = test system: T47D
KM12 = test system: KM12
Hs-578T = test system: Hs-578T
MDA-MB-435 = test system: MDA-MB-435
MDA-N = test system: MDA-N

| SMILES | GI50 (ACHN) | GI50 (KM-20L2) | GI50 (NCI-H522) | GI50 (SNB-78) | GI50 (CAKI-1) | GI50 (DMS-273) | GI50 (HOP-92) | GI50 (SNB-75) | GI50 (SR) | GI50 (HOP-62) | GI50 (M14) | GI50 (DU-145) | GI50 (PC-3) | GI50 (MDA-MB-231) | GI50 (NCI/ADR-RES) | GI50 (T47D) | GI50 (KM12) | GI50 (Hs-578T) | GI50 (MDA-MB-435) | GI50 (MDA-N) |
| --- | --- | --- | --- | --- | --- | --- | --- | --- | --- | --- | --- | --- | --- | --- | --- | --- | --- | --- | --- | --- |
| COc1ccc(/C(Cl)=C(\CN(C)C)c2ccc(OC)c(OC)c2)cc1OC | > 100 µM (inactive) | > 100 µM (inactive) | > 100 µM (inactive) | > 100 µM (inactive) | > 100 µM (inactive) | > 100 µM (inactive) |  |  |  |  |  |  |  |  |  |  |  |  |  |  |
| O=C(Nc1ccc(Cl)cc1)c1cc2cc(/N=N/c3ccccc3Cl)ccc2oc1=O | 6.3 µM (inactive) | 4.93 µM (inactive) | 21.7 µM (inactive) | 22.9 µM (inactive) | 24.9 µM (inactive) |  | 18.9 µM (inactive) | 24 µM (inactive) | 15.8 µM (inactive) | 26.9 µM (inactive) | 15.5 µM (inactive) |  |  |  |  |  |  |  |  |  |
| CCOC(=O)C(O)(NC(=O)c1ccccc1F)C(F)(F)F (stereo not drawn) | > 100 µM (inactive) |  | > 100 µM (inactive) |  | > 100 µM (inactive) |  | > 100 µM (inactive) | > 100 µM (inactive) | > 100 µM (inactive) | > 100 µM (inactive) | > 100 µM (inactive) | > 100 µM (inactive) | > 100 µM (inactive) | 2.69 µM (inactive) | > 100 µM (inactive) | > 100 µM (inactive) | > 100 µM (inactive) | > 100 µM (inactive) | > 100 µM (inactive) | > 100 µM (inactive) |
| COc1cc([N+](=O)[O-])ccc1N1C(=O)C2c3[nH]c4ccccc4c3C3CCC(C(C)(C)C)CC3C2C1=O (stereo not drawn) | > 100 µM (inactive) |  | 42.4 µM (inactive) |  | 2.04 µM (inactive) |  | 22 µM (inactive) |  | > 100 µM (inactive) | 7.43 µM (inactive) | 13.6 µM (inactive) | > 100 µM (inactive) | 38.6 µM (inactive) | 14.7 µM (inactive) | 22.3 µM (inactive) |  | > 100 µM (inactive) | 5.6 µM (inactive) | 17.4 µM (inactive) | 40.6 µM (inactive) |
| C=CCCC(On1c(-c2ccc(Cl)cc2)csc1=S)c1ccccc1 (stereo not drawn) | 83.6 µM (inactive) |  | 12.4 µM (inactive) |  | > 100 µM (inactive) |  | 40.6 µM (inactive) |  |  | 90.6 µM (inactive) | 13.9 µM (inactive) | 49.4 µM (inactive) | 27.3 µM (inactive) | 68.9 µM (inactive) | 13.7 µM (inactive) | 17 µM (inactive) | 26.5 µM (inactive) | 34.4 µM (inactive) | 4.56 µM (inactive) | 3.36 µM (inactive) |
| CCOC(=O)C1=C(C)NC(=O)N([N+](=O)[O-])C1c1ccccc1C(F)(F)F (stereo not drawn) | > 100 µM (inactive) |  |  |  | 23.1 µM (inactive) |  | > 100 µM (inactive) |  | 31.8 µM (inactive) | 70.6 µM (inactive) | 43.5 µM (inactive) | 94.2 µM (inactive) | 33.3 µM (inactive) | > 100 µM (inactive) | 34.1 µM (inactive) | 35.4 µM (inactive) |  | 70.3 µM (inactive) | 45.1 µM (inactive) | 21.8 µM (inactive) |
| CNC(=O)OCC1=C(COC(=O)NC)CN(c2ccc(OC)cc2)C1 | > 100 µM (inactive) |  |  |  |  |  | > 100 µM (inactive) | > 100 µM (inactive) | > 100 µM (inactive) | > 100 µM (inactive) | > 100 µM (inactive) | > 100 µM (inactive) | > 100 µM (inactive) | > 100 µM (inactive) | > 100 µM (inactive) | > 100 µM (inactive) | > 100 µM (inactive) | > 100 µM (inactive) | > 100 µM (inactive) | > 100 µM (inactive) |
| CSc1nc(NC2OCC(OC(C)=O)C(OC(C)=O)C2OC(C)=O)c(/N=C(\C)C(C)=O)c(=O)[nH]1 (stereo not drawn) | > 100 µM (inactive) |  |  | > 100 µM (inactive) | > 100 µM (inactive) | > 100 µM (inactive) | > 100 µM (inactive) | > 100 µM (inactive) | > 100 µM (inactive) |  | > 100 µM (inactive) |  |  |  |  |  | > 100 µM (inactive) |  |  |  |
| CC1(C)N=C(/C(Cl)=[N+](/[O-])C(=O)c2ccc(Cl)cc2)C(C)(C)N1O | 38.5 µM (inactive) |  |  |  | 19.2 µM (inactive) |  | 17.3 µM (inactive) |  | 28.3 µM (inactive) | 39 µM (inactive) | 18.2 µM (inactive) | > 100 µM (inactive) | 21.3 µM (inactive) | 21.8 µM (inactive) | 25.9 µM (inactive) | 38.3 µM (inactive) | 45.3 µM (inactive) | 36.2 µM (inactive) | 22.3 µM (inactive) | 17.1 µM (inactive) |
| COC(=O)C(C)NP(=O)(N1CC1)N1CC1 (stereo not drawn) | 27.9 µM (inactive) | > 100 µM (inactive) | > 100 µM (inactive) | > 100 µM (inactive) | > 100 µM (inactive) | 91 µM (inactive) |  | > 100 µM (inactive) |  |  | 83 µM (inactive) |  |  |  |  |  | > 100 µM (inactive) |  |  |  |
| Cc1ccc(C)c(NC(=O)CCC(=O)CC(=O)C(C)(C)C)c1 | > 100 µM (inactive) | > 100 µM (inactive) | > 100 µM (inactive) | > 100 µM (inactive) | > 100 µM (inactive) | > 100 µM (inactive) | > 100 µM (inactive) | > 100 µM (inactive) |  | > 100 µM (inactive) | > 100 µM (inactive) |  |  |  |  |  | > 100 µM (inactive) |  |  |  |
| Cc1cccc(C)c1NC(=O)/C(CC(=O)CC(c1ccccc1)c1c(O)c2ccccc2oc1=O)=N/O (stereo not drawn) | > 100 µM (inactive) |  | > 100 µM (inactive) |  | > 100 µM (inactive) |  | 31.3 µM (inactive) | > 100 µM (inactive) |  | > 100 µM (inactive) | > 100 µM (inactive) | > 100 µM (inactive) | > 100 µM (inactive) | > 100 µM (inactive) | > 100 µM (inactive) |  | > 100 µM (inactive) | > 100 µM (inactive) | > 100 µM (inactive) | > 100 µM (inactive) |
| CC1(C)N=C(c2ccccc2)SC12S[C@@H]1CCCC[C@H]1S2 | > 100 µM (inactive) |  | > 100 µM (inactive) |  | > 100 µM (inactive) |  | > 100 µM (inactive) | > 100 µM (inactive) |  | > 100 µM (inactive) | > 100 µM (inactive) | > 100 µM (inactive) | > 100 µM (inactive) | > 100 µM (inactive) | > 100 µM (inactive) | 35.8 µM (inactive) | > 100 µM (inactive) | 4.57 µM (inactive) | > 100 µM (inactive) | 20.7 µM (inactive) |
| O=C1c2cc3c(cc2CC1Cc1ccc2c(c1)CCC2)CCC3 (stereo not drawn) | 48.4 µM (inactive) |  | 24.1 µM (inactive) |  |  |  |  | 13.4 µM (inactive) | 29.9 µM (inactive) | 72.4 µM (inactive) | > 100 µM (inactive) | 54 µM (inactive) | 72.9 µM (inactive) | 26.4 µM (inactive) | 65.3 µM (inactive) | 10.9 µM (inactive) | > 100 µM (inactive) | 32.4 µM (inactive) | 76 µM (inactive) | 51.4 µM (inactive) |
| CC1(C)OCC(CO)(CO)CO1 | > 100 µM (inactive) |  | > 100 µM (inactive) |  |  |  | > 100 µM (inactive) | > 100 µM (inactive) | > 100 µM (inactive) |  | > 100 µM (inactive) | > 100 µM (inactive) | > 100 µM (inactive) | > 100 µM (inactive) | > 100 µM (inactive) | > 100 µM (inactive) | > 100 µM (inactive) | > 100 µM (inactive) | > 100 µM (inactive) | > 100 µM (inactive) |
| COc1ccc(C(=O)C2CC3(CCC2(O)c2ccc(OC)cc2)CC(=O)Nc2ccccc2C3=O)cc1 (stereo not drawn) |  |  |  |  | > 100 µM (inactive) |  | 0.5 µM (active) | 4.4 µM (inactive) | > 100 µM (inactive) | > 100 µM (inactive) | > 100 µM (inactive) | > 100 µM (inactive) | 1.44 µM (inactive) | > 100 µM (inactive) | > 100 µM (inactive) | 0.366 µM (active) |  | > 100 µM (inactive) | > 100 µM (inactive) | > 100 µM (inactive) |
| CCOC(=O)Cc1cnc(NC(NC(=O)CC)(C(F)(F)F)C(F)(F)F)s1 | > 100 µM (inactive) |  | > 100 µM (inactive) |  |  |  |  | > 100 µM (inactive) | > 100 µM (inactive) | > 100 µM (inactive) | > 100 µM (inactive) | > 100 µM (inactive) |  | > 100 µM (inactive) |  | > 100 µM (inactive) | > 100 µM (inactive) | > 100 µM (inactive) | > 100 µM (inactive) | > 100 µM (inactive) |
| CNC(=O)OC(C)CN1c2ccccc2Sc2ccc(Cl)cc21 (stereo not drawn) | > 10 µM (inactive) |  | > 10 µM (inactive) |  | > 10 µM (inactive) |  |  | > 10 µM (inactive) | > 10 µM (inactive) | > 10 µM (inactive) | > 10 µM (inactive) | > 10 µM (inactive) | > 10 µM (inactive) | > 10 µM (inactive) | > 10 µM (inactive) | > 10 µM (inactive) |  | > 10 µM (inactive) | > 10 µM (inactive) | > 10 µM (inactive) |
| COc1cc(C2c3cc4c(cc3[C@@H](Nc3ccc(Oc5ccccc5)cc3)C3COC(=O)[C@H]23)OCO4)cc(OC)c1O (stereo partly drawn) |  | 1.17 µM (inactive) | 2.25 µM (inactive) | > 61 µM (inactive) | 1.35 µM (inactive) |  |  |  |  | 0.851 µM (active) |  |  |  |  | 9.02 µM (inactive) |  | 4.57 µM (inactive) |  |  |  |
| Oc1nc2ccccc2c2oc3ccccc3c12 | > 100 µM (inactive) |  | > 100 µM (inactive) |  | > 100 µM (inactive) |  | 23.2 µM (inactive) | 6.81 µM (inactive) | > 100 µM (inactive) | 88.9 µM (inactive) | > 100 µM (inactive) | > 100 µM (inactive) | > 100 µM (inactive) | 83.8 µM (inactive) | > 100 µM (inactive) | 16.1 µM (inactive) | > 100 µM (inactive) | 37.9 µM (inactive) | > 100 µM (inactive) | > 100 µM (inactive) |

Source: ChEMBL document CHEMBL1201862, “PubChem BioAssay data set” (2004)
